Assay results as given in PMC4166403 (Cell, 2014).

Columns and labels:
[1] = molecular target: T1, pyruvate carboxylase (LmPC) (Listeria monocytogenes, UniProt Q8Y846); assay: PC activity assay with nucleotide analogues; assay type: biochemical
T1 sequence (Q8Y846 1-1146): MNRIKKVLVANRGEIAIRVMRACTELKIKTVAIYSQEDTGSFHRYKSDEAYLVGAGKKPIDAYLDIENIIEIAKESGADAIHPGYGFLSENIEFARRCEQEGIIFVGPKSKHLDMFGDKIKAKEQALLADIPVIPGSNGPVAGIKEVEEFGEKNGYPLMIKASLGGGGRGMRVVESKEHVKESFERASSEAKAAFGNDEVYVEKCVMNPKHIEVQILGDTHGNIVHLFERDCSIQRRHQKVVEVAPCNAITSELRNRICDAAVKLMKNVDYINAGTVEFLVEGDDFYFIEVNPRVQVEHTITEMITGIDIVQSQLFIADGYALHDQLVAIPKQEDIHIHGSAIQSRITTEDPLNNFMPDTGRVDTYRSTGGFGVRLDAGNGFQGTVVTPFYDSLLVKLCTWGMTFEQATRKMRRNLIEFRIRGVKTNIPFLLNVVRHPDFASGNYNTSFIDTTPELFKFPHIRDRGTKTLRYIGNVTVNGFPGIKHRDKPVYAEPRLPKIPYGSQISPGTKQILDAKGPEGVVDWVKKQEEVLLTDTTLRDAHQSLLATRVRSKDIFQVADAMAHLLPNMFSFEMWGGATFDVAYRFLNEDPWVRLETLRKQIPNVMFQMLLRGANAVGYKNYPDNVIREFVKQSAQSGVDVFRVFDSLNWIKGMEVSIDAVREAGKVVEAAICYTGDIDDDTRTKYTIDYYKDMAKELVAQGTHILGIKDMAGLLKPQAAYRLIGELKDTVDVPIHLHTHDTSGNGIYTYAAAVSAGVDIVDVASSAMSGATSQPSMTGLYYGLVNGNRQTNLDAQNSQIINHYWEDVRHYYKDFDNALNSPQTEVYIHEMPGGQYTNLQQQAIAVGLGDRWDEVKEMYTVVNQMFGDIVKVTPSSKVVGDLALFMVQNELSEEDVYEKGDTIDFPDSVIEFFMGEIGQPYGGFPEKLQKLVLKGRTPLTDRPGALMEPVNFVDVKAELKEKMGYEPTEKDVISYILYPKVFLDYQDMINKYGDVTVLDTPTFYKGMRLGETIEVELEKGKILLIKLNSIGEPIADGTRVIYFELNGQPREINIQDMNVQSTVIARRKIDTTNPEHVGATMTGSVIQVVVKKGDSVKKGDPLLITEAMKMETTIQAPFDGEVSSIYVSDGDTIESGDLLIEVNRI

[2] = molecular target: T2, Lmo1466 (Listeria monocytogenes, UniProt Q8Y746); assay: DRaCALA with […]-c-di-AMP in E. coli lysate expressing the protein; assay type: cell-based
T2 sequence (Q8Y746 1-718): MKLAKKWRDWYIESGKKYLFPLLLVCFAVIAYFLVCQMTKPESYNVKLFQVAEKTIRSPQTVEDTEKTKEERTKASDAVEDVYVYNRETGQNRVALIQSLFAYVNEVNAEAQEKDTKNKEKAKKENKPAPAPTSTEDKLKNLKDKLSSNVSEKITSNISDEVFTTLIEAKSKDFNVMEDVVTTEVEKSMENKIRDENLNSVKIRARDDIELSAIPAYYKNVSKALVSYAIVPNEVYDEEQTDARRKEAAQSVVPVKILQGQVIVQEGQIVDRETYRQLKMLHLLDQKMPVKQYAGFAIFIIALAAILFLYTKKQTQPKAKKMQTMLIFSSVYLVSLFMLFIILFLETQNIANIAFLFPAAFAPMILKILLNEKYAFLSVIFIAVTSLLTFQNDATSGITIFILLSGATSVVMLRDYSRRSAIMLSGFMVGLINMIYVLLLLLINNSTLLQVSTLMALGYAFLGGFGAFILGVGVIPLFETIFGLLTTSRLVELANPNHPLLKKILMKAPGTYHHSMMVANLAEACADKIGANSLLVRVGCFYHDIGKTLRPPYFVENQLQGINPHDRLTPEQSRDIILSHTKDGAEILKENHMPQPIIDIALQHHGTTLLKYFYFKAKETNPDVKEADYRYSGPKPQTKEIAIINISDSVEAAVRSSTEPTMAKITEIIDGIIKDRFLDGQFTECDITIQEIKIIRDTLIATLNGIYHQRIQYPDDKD

[3] = molecular target: T1, pyruvate carboxylase (LmPC); assay: crystal structure; assay type: binding
[4] = molecular target: pyruvate carboxylase (LmPC) (Listeria monocytogenes, UniProt Q8Y846, Y722F); assay: binding titration and enzyme inhibition of purified mutant
[5] = molecular target: T3, PdeA (Lmo0052) (Listeria monocytogenes, UniProt A0A0H3GCG4); assay: DRaCALA with […]-c-di-AMP, purified recombinant protein; assay type: binding
T3 sequence (A0A0H3GCG4 1-657): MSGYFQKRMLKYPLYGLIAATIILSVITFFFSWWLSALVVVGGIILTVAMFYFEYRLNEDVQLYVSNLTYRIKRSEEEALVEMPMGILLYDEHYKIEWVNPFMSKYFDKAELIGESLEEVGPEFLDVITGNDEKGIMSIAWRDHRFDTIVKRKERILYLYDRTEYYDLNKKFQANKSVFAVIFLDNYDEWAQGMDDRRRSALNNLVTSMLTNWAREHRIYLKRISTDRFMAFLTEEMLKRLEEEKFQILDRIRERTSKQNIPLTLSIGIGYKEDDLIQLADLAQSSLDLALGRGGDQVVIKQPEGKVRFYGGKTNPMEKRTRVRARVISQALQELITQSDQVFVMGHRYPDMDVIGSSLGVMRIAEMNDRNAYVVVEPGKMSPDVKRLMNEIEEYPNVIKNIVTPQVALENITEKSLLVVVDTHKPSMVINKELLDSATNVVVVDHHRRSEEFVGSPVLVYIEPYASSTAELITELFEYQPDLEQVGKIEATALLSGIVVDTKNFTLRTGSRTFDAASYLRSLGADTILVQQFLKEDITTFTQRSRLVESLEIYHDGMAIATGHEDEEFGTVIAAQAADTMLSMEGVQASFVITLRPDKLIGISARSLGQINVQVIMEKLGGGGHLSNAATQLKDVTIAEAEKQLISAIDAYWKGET

[6] = molecular target: the molecule itself; assay: crystal structure

O=c1[nH]cnc2c1ncn2[C@@H]1O[C@@H]2COP(=O)(O)O[C@H]3[C@@H](O)[C@H](n4cnc5c(=O)[nH]cnc54)O[C@@H]3COP(=O)(O)O[C@H]2[C@H]1O [c-di-IMP]
PC activity assay with nucleotide analogues [1]: while c-di-IMP did show weak inhibitory activity

Nc1ncnc2c1ncn2[C@@H]1O[C@@H]2CO[P@@](=O)(O)O[C@H]3[C@@H](O)[C@H](n4cnc5c(N)ncnc54)O[C@@H]3CO[P@@](=O)(O)O[C@H]2[C@H]1O [cdA, c-di-AMP]
DRaCALA with 32P-c-di-AMP in E. coli lysate expressing the protein [2]: A significant level of binding was observed for Lmo1466 and NrdR-expressing lysates, consistent with a direct interaction with c-di-AMP | Kd [3]: 8 ± 0.2 µM | binding titration and enzyme inhibition of purified mutant [4]: binding to c-di-AMP was only observed for Y722F and none of the other amino acid variants | DRaCALA with 32P-c-di-AMP, purified recombinant protein [5]: as well as PdeA and LmPC exhibited binding in purified form

B1: Listeria monocytogenes pyruvate carboxylase (LmPC) (enzyme)
chain: T1 sequence (Q8Y846 1-1146)
modifications: biotin group on the BCCP domain (position not given)
stoichiometry N [6]: 4
